In patent US5010084A, “Imidazoquinolone derivatives” (Kyowa Hakko Kogyo Co., Ltd., priority 1989, dated 1991):
Counter-ions that a name gives are not always drawn.

How the values were obtained:
[1] = system: zig-zag strips of the tracheae (passively sensitized guinea pigs); assay: Effects on passive Schultz-Dale reaction (broncho-dilatory effects); format: cell-based, guinea pig (male Hartley); settings: Cavia porcellus; guinea pig trachea contracted with antigen EWA 1 μg/ml, 37° C., cumulative concentration-relaxation curves; read-out: Passive Schultz-Dale reaction (IC50), concentration of 50% relaxation rate
Experimental: Male Hartley guinea pigs weighing 350 to 500 g were passively sensitized by intraperitoneal injection of rabbit anti-egg white albumin (EWA) serum prepared by the method of Eda et al. [Folia pharmacol., Japon 66, 237, (1970)]. After 24 hours, the guinea pigs were stunned and exsanguinated, and then tracheae were removed. The zig-zag strips of the tracheae were prepared by the method of Emmerson and Mackay [J. Pharm. Pharmacol., 31, 798, (1979)]. The strips were suspended in Krebs-Henseleit solution at 37° C. under aeration of a mixed gas of 95% oxygen and 5% carbon dioxide, and equilibrated for one hour. Antigen (EWA) was then introduced in the solution (final concentration; 1 μg/ml), and the contraction was measured by […] (TD-112s, made by Nihon Kohden K.K., Japan) and recorded on a recorder (Type 3066, made by Yokogawa-Hokushin Denki, K.K. Japan). After the contraction curves reached plateau, the compounds were successively added in order to get cumulative concentration-relaxation curves.

[2] = system: passively sensitized guinea pigs, experimental asthma; assay: Effects on experimental asthma; format: in vivo, guinea pig (male Hartley); settings: guinea pig, 50 mg/kg orally, 1 hour before aerosol of 1.5% EWA; diphenhydramine and propranolol pretreated; control 254
Experimental: Guinea pigs were passively sensitized as follows. Male Hartley guinea pigs weighing 350 to 500g were intraperitoneally injected with 1 ml of rabbit EWA serum prepared by the method of Eda et al. [Folia pharmacol., Japon, 66, 237 (1970)]. The animals were treated with intraperitoneal injection of diphenhydramine (20 mg/kg) and propranolol (5 mg/kg), 30 minutes before administration of test compounds. 17 hours after the sensitization, the test compounds (50 mg/kg) were orally administrated to sensitized animals. After one hour from the administration of the test compounds, the guinea pigs were placed in plastic observation box and were exposed to an aerosal antigen of 1.5% EWA. The time until the onset of respiratory […] symptom [collapse time (second)] was measured as a result of experimental asthma.

[3] = Acute toxicity; settings: mouse, in vivo; male dd-mice, po, mortality for seven days
Experimental: The compounds were orally administrated (po: 300 mg/kg) to male dd-mice weighing 20 to 25 g. LD50 was determined by observing the mortality for seven days after the administration.

In the case of Cn1c(=O)c2[nH]cnc2n(C)c1=O [Aminophylline, reference compound], the IC50 [1] is reported as 23 µM.
For CCCCn1c(=O)c2c(ncn2C)c2ccccc21 [Compound 1, 5-n-Butyl-3-methyl-3H,5H-imidazo[4,5,-c]quinolin-4-one], the “Experimental asthma, collapse time (time until the onset of respiratory distresslike symptom)” value (“Experimental asthma, collapse time” below) [2] was 429 s, the LD50 at 168 h [3] was > 200 mg/kg and the IC50 [1] was 6.7 µM.
With CCCCn1c(=O)c2c(ncn2CC)c2ccccc21.Cl [Compound 2, 5-n-Butyl-3-ethyl-3H,5H-imidazo[4,5-c]quinolin-4-one hydrochloride] the LD50 at 168 h [3] was > 300 mg/kg and the IC50 [1] was 2 µM.
With CCCCn1c(=O)c2c(ncn2CCC)c2ccccc21.Cl [Compound 3, 5-n-Butyl-3-n-propyl-3H,5H-imidazo[4,5-c]quinolin-4-one hydrochloride] the “Experimental asthma, collapse time” value [2] was 348 s, the LD50 at 168 h [3] was > 300 mg/kg and the IC50 [1] was 6.8 µM.
With CCCCn1c(=O)c2c(ncn2C(C)C)c2ccccc21 [Compound 4, 5-n-Butyl-3-isopropyl-3H,5H-imidazo[4,5,-c]quinolin-4-one hydrochloride] the LD50 at 168 h [3] was > 300 mg/kg and the IC50 [1] was 3.7 µM.
For CCCCn1cnc2c3ccccc3n(CCCC)c(=O)c21 [Compound 5, 3,5-Di-n-Butyl-3H,5H-imidazo [4,5,-c] quinolin-4-one hydrochloride], the LD50 at 168 h [3] was > 300 mg/kg.
With CCCCn1c(=O)c2c(ncn2CC(C)=O)c2ccccc21 [Compound 6, 3-Acetonyl-5-n-butyl-3H,5H-imidazo[4,5,-c]quinolin-4-one] the “Experimental asthma, collapse time” value [2] was 530 s, the LD50 at 168 h [3] was > 300 mg/kg and the IC50 [1] was 7.9 µM.
For CCCCn1c(=O)c2c(ncn2CC(=O)OC(C)(C)C)c2ccccc21 [Compound 7, 3-tert-Butoxycarbonylmethyl-5-n-butyl-3H,5H-imidazo[4,5-c]quinolin-4-one], the IC50 [1] was 0.47 µM.
Compound CCCCn1c(=O)c2c(ncn2CC(=O)O)c2ccccc21 [Compound 8, 5-n-Butyl-3-carboxymethyl-3H,5H-imidazo[4,5,-c]quinolin-4-one] has an IC50 [1] of 6.7 µM.
CCn1c(=O)c2c(ncn2C)c2ccccc21 [Compound 9, 5-Ethyl-3-methyl-3H,5H-imidazo[4,5,-c]quinolin-4-one] gave an IC50 [1] of 1.3 µM.
With Cn1c(=O)c2[nH]cnc2n(C)c1=O [Theophylline, reference compound] the “Experimental asthma, collapse time” value [2] was 414 s.
